{"source": "patent US20120070493A1", "about": "“TARGETED MULTI-EPITOPE DOSAGE FORMS FOR INDUCTION OF AN IMMUNE RESPONSE TO ANTIGENS” (Selecta Biosciences, Inc., priority 2010, published 2012)", "key": {"[1]": {"system": "CD4+/CD45RAlow/CD62Lhigh central memory T-cells", "test": "dendritic cell/CD4 T-cell co-culture, multi-color intracellular cytokine analysis", "format": "cell-based, human", "conditions": "for co-expression of TNF-α and IFN-γ / co-expression of TNF-α and IL-4: multiple color flow cytometry, FIG. 9; for IFN-γ expression in peptide specific central memory T-cells / IL-4 expression in peptide specific central memory T-cells / TNF-α expression in peptide specific central memory T-cells: DC/CD4 co-culture with or without peptide, FIGS. 7 and 8", "protocol": "Early central memory T-cells express multiple cytokines (IL-2, TNF-α, IFN-γ) when re-activated with specific peptides, whereas committed effector memory T-cells are thought to selectively express IL-4 for TH2 committed effector memory, and IFN-γ for TH1 committed effector memory. The status of peptide activated memory T-cells was tested using multi-color intracellular cytokine analysis of dendritic cell/CD4 cell co-cultures.\nHuman peripheral blood monocytes were isolated using negative-selection magnetic beads (Dynal) and cultured in the presence of GM-CSF and IL-4 for 1 week in order to induce differentiation into dendritic cells. Allogeneic CD4 T cells were isolated using magnetic bead separation (Dynal) and co-cultured in the presence of DCs in the presence or absence of peptide. The protocol for stimulation and analysis from that point is identical to that for PBMC described above in Example 2."}, "[2]": {"system": "CD4+/CD45RAlow/CD62Lhigh central memory T-cells (human PBMC)", "format": "cell-based", "conditions": "for memory T-cell recall response, influenza epitopes: 5 PBMC donors, FIG. 14; for response of individual peptides and of heterodimeric peptides lacking a cathepsin cleavage site, compared with the response to this peptide: 4 donors, the comparators were the weaker ones, not the labelled peptide"}, "human PBMC": {"system": "human PBMC", "test": "interferon gamma Elispot, peptide-stimulated PBMC", "format": "cell-based", "conditions": "10 μM peptide; for memory T-cell response (IFN-γ Elispot spots, normalized to non-stimulated controls): 18 hours, 5 donors, FIG. 22; for number of donors showing a recall: out of 5 donors", "protocol": "The potency of single epitopes and chimeric epitopes have been evaluated by stimulating human PBMC with peptides in vitro for 18 hours and then analyzing the cells by Elispot. Briefly, whole blood was obtained from Research Blood Components (Cambridge). Blood was diluted in phosphate buffered saline (PBS) and then overlaid on top of Ficoll-paque premium (GE Healthcare) in a 50 mL tube. Tubes were spun for 30 minutes, and the transition phase PBMCs collected, diluted in PBS with 10% fetal calf serum (FCS) and spun for 10 minutes. Cells were resuspended in cell freezing media (Sigma) and immediately frozen at −80 C overnight. For long term storage, cells were transferred to liquid nitrogen. Cells were thawed as needed and resuspended in PBS 10% FCS, spun down and resuspended to 1×10^7 cells/mL in culture media (RPMI [cellgro]), supplemented with 10% heat inactivated fetal calf serum (Sigma) l-glutamine, penicillin and streptomycin).\nThe Elispot assay was performed using an interferon gamma Elispot kit (Mabtech). Briefly the Elispot was performed by coating 96 well filter plates with an IFN-γ capture antibody, then blocked with complete culture media containing 10% FCS to prevent non-specific binding. PBMC (1×10^6 cells) were plated in the antibody pre-coated Elispot plates with or without 10 μM peptide. Positive control wells were stimulated with 10 μg/mL PHA. Elispot plates were incubated for 18 hours at 37° C. followed by coating with biotinylated anti-IFN-γ secondary antibody for 2 hours at room temperature. Elispot plates were then washed and IFN-γ spots developed using 3-amino-9-ethylcarbazole, dimethylformamide, and hydrogen peroxide in acetate buffer. IFN-γ positive Elispot counts were evaluated by an outside vendor (Zelnet) and the number of spots scored per 10 million cells."}, "[3]": {"system": "MHC Class II (HLADP, HLADQ and HLADR alleles)", "conditions": "previously described peptide, Virology 326 (2004) 220-230; cited from earlier work"}}, "note": "Square brackets hold non-standard residues; d marks the D form. Ends that are not written are not given here."}
{"substance": "ILMQYIKANSKFIGIQSIALSSLMVAQ [TT830DTt]", "values": [{"measurement": "co-expression of TNF-α and IFN-γ", "setting": "[1]", "result": "peptide induced co-expression"}, {"measurement": "co-expression of TNF-α and IL-4", "setting": "[1]", "result": "not co-expression"}]}
{"substance": "CSQRSKFLLMDALKLkvsvrLIFLARSALILR [AAWkAAT]", "values": [{"measurement": "memory T-cell recall response, influenza epitopes", "setting": "[2]; 4 μM peptide", "result": "positive"}]}
{"substance": "EKIVLLFAIVSLVKSDQICI [ABW9]", "values": [{"measurement": "memory T-cell recall response, influenza epitopes", "setting": "[2]; 4 μM peptide", "result": "not"}]}
{"substance": "ILMQYIKANSKFIGIQSIALSSLMVAQAIPLVGEL [TT830DT]", "values": [{"measurement": "IFN-γ expression in peptide specific central memory T-cells", "setting": "[1]", "result": "increased expression"}, {"measurement": "IL-4 expression in peptide specific central memory T-cells", "setting": "[1]", "result": "not IL-4"}, {"measurement": "TNF-α expression in peptide specific central memory T-cells", "setting": "[1]", "result": "increased expression"}]}
{"substance": "VWLYNQIALQLKNHAkvsvrAGFYHILNNPKASL [VWLkAGF]", "values": [{"measurement": "memory T-cell response (IFN-γ Elispot spots, normalized to non-stimulated controls)", "setting": "human PBMC", "result": "highest memory T-cell response"}, {"measurement": "number of donors showing a recall", "setting": "human PBMC", "result": 5, "unit": "donors"}]}
{"substance": "TLLYVLFEVPMGLPILMQYIKANSKFIGI [AdVpTT830]", "values": [{"measurement": "effect of insertion of a cathepsin cleavage site on activity of the AdV epitope", "setting": "[2]; human PBMC, 4 μM peptide", "result": "eliminated activity of the AdV epitope"}]}
{"substance": "TLLYVLFEVkvsvr NNFTVSFWLRVPKVSASHLET (TLLYVLFEV[dK][dV][dS][dV][dR]NNFTVSFWLRVPKVSASHLET) [AdVkTT950]", "values": [{"measurement": "response of individual peptides and of heterodimeric peptides lacking a cathepsin cleavage site, compared with the response to this peptide", "setting": "[2]; 4 μM peptide", "result": "weaker response"}]}
{"substance": "ILSIYSTVASSLALAIkvsvrLIFLARSALILR [ABW2kAAT]", "values": [{"measurement": "memory T-cell recall response, influenza epitopes", "setting": "[2]; 4 μM peptide", "result": "positive"}]}
{"substance": "ILMQYIKANSKFIGIPMGLPQSIALSSLMVAQ [TT830pmglpDTt]", "values": [{"measurement": "IFN-γ expression in peptide specific central memory T-cells", "setting": "[1]", "result": "increased expression"}, {"measurement": "IL-4 expression in peptide specific central memory T-cells", "setting": "[1]", "result": "not IL-4"}, {"measurement": "TNF-α expression in peptide specific central memory T-cells", "setting": "[1]", "result": "increased expression"}, {"measurement": "co-expression of TNF-α and IFN-γ", "setting": "[1]", "result": "peptide induced co-expression"}, {"measurement": "co-expression of TNF-α and IL-4", "setting": "[1]", "result": "not co-expression"}, {"measurement": "effect of inclusion of a cathepsin cleavage site on the response, compared with TT830DTt", "setting": "[2]; human PBMC, 4 μM peptide", "result": "enhanced the response"}, {"measurement": "recall activity compared with identical peptide without cleavage site (TT830DT)", "setting": "[2]; human PBMC, 4 μM peptide", "result": "better than a peptide identical except without a cleavage site (TT830DT)"}, {"measurement": "recall activity compared with individual components TT830 and DT alone", "setting": "[2]; human PBMC, 4 μM peptide", "result": "more active than its individual components (TT830 and DT) alone"}, {"measurement": "number of activated central memory T-cells (percent CD62L+/IFN-γ+ cells, normalized to non-stimulated)", "setting": "[2]; human PBMC, 4 μM peptide, 20 donors, FIG. 5", "result": "highest response"}, {"measurement": "number of donors positive for memory T-cells responding to peptide", "setting": "[2]; out of 20 donors, positive if greater than 0.08% responding central memory T-cells, FIG. 6", "result": "20/20"}]}
{"substance": "LIFLARSALILRkvsvrILSIYSTVASSLALAI [AATkABW2]", "values": [{"measurement": "memory T-cell recall response, influenza epitopes", "setting": "[2]; 4 μM peptide", "result": "positive"}]}
{"substance": "VSTYMLTNSELLSLINDkvsvrAGFYHILNNPKASL [VSTkAGF]", "values": [{"measurement": "memory T-cell response (IFN-γ Elispot spots, normalized to non-stimulated controls)", "setting": "human PBMC", "result": "highest memory T-cell response"}, {"measurement": "number of donors showing a recall", "setting": "human PBMC", "result": 5, "unit": "donors"}]}
{"substance": "DFHFEVFNFVPCSI [RSVG162-175]", "values": [{"measurement": "Affinity (HLA Class II type bound)", "setting": "[3]", "result": "(HLADP)"}]}
{"substance": "ILMQYIKANSKFIGI QSIALSSLMVAQTLLYVLFEV (ILMQYIKANSKFIGIQSIALSSLMVAQTLLYVLFEV) [TT830DTAdV]", "values": [{"measurement": "number of donors showing a recall response", "setting": "[2]", "result": 4, "unit": "donors"}]}
{"substance": "TLLYVLFEVkvsvrQSIALSSLMVAQ (TLLYVLFEV[dK][dV][dS][dV][dR]QSIALSSLMVAQ) [AdVkDTt]", "values": [{"measurement": "response of individual peptides and of heterodimeric peptides lacking a cathepsin cleavage site, compared with the response to this peptide", "setting": "[2]; 4 μM peptide", "result": "weaker response"}]}
{"substance": "NAELLVALENQHTIkvsvrLIFLARSALILR (NAELLVALENQHTIKVSVRLIFLARSALILR) [3120tkAAT]", "values": [{"measurement": "memory T-cell recall response, influenza epitopes", "setting": "[2]; 4 μM peptide", "result": "positive"}]}
